# Source: patent publication US20230393140A1, “BINDING ASSAYS INVOLVING A PLURALITY OF SYNTHETIC COMPOUNDS, TARGETS, AND COUNTER TARGETS” (SRI International, priority 2020, published 2023)
# Numbered stars: 1 amine (or outer) side, 2 acyl side, 3 side chain; on linkers, the order of the positions; unused ones are H or OH. Square brackets hold non-standard residues; d marks the D form. Peptide text beside a SMILES is read from it. * marks the point of attachment. 5FAM = O=C1OC2(c3ccc(O)cc3Oc3cc(O)ccc32)c2ccc(C(=O)*)cc21; NHCH2C6H4(4-CH2CONH2) = NC(=O)Cc1ccc(CN*)cc1; X1 = O=C(Cc1ccc(CN[*:1])cc1)[*:2]
# Target: TNFα (Homo sapiens, UniProt P01375)
# Experiment: MST binding affinity of resynthesized NNP hits to TNFα
# Design: purchased R&D Systems, Inc. 210-TA/CF
# Settings: read-out: KD (nM) [95% conf. int], NNP2 library hit, target TNFα, one-site binding model
# Description: Hit binding affinity to various targets were determined using Microscale Thermophoresis (MST). MST experiments were performed on a Monolith NT.115pico (NanoTemper Technologies GmbH, Munich, Germany). Measurements were performed at room temperature, in triplicate with incubation periods of 15, 30 and 45 minutes. […] Targets were labeled using Nanotemper Monolith 2nd Generation Protein Labeling Kits. RED-MALEIMIDE (Maleimide-647-dye) labeling kit was used for K-Ras and RED-NHS (NHS-647-dye) labeling kit was used for IL-6, IL-6R, TNFα and ASGPR. The buffer for the ASGPR contained 20 mM HEPES pH 7.4, 150 mM NaCl, 10 mM MgCl2, 2 mM CaCl2, 0.05% Pluronic F-127, and 1 mM DTT; for IL-6 contained 20 mM HEPES pH 7.4, 150 mM KCl, 10 mM MgCl2, and 0.1% Pluronic F-127; for the soluble IL-6 receptor 20 mM HEPES pH 7.4, 150 mM NaCl, 10 mM MgCl2, and 0.05% Tween-20; for K-Ras 20 mM HEPES pH 7.4, 150 mM NaCl, 10 mM MgCl2, 0.05% Tween-20 and 1 mM DTT; for TNFα 10 mM HEPES pH 7.4, 150 mM NaCl, 10 mM MgCl2, 0.05% Polysorbate-20. Triplicate data was analyzed using MO.AffinityAnalysis software (NanoTemper Technologies GmbH).
# Chain of TNFα (P01375 77-233 limits assumed): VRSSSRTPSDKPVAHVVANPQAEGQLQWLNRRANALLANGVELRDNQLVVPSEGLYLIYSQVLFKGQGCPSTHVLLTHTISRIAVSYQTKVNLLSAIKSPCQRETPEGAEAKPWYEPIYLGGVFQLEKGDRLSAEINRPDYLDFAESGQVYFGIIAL
row,Structure (SMILES),Kd [nM]
1,CC(C)C[C@H](NC(=O)[C@@H](CCCNC(=N)N)NC(=O)[C@@H](Cc1c[nH]c2ccccc12)NC(=O)Cc1ccc(CNC(=O)[C@H](CC(C)C)NC(=O)[C@@H](CCCCN)NC(=O)[C@@H](CC(C)C)NC(=O)Cc2ccc(CNC(=O)[C@H](CC(C)C)NC(=O)[C@@H](CCCNC(=N)N)NC(=O)[C@@H](CC(C)C)NC(=O)Cc3ccc(CNC(=O)[C@H](Cc4ccccc4)NC(=O)[C@@H](CC(C)C)NC(=O)[C@H](NC(=O)c4ccc5c(c4)C(=O)OC54c5ccc(O)cc5Oc5cc(O)ccc54)[C@H](C)O)cc3)cc2)cc1)C(=O)NCc1ccc(CC(=O)N[C@H](C)C(=O)N[C@H](CCCCN)C(=O)N[C@@H](Cc2ccccc2)C(=O)NCc2ccc(CC(=O)N[C@H](CCC(=O)O)C(=O)N[C@H](CO)C(=O)N[C@H](C(=O)NCc3ccc(CC(=O)N4CCC[C@@H]4C(=O)N[C@@H](C(=O)NCC(=O)NCc4ccc(CC(=O)N[C@H](CCC(=O)O)C(=O)N[C@H](Cc5ccc(O)cc5)C(=O)N[C@@H](Cc5ccccc5)C(=O)NCc5ccc(CC(=O)N[C@H](Cc6ccc(O)cc6)C(=O)N[C@H](CCCNC(=N)N)C(=O)N[C@@H](Cc6ccccc6)C(=O)NCc6ccc(CC(N)=O)cc6)cc5)cc4)C(C)C)cc3)C(C)C)cc2)cc1 [TNF-31-4] (5FAM-[dT][dL]F[X1][dL][dR]L[X1][dL][dK]L[X1][dW][dR]L[X1][dA][dK]F[X1][dE][dS]V[X1][dP][dV]G[X1][dE][dY]F[X1][dY][dR]F-{NHCH2C6H4(4-CH2CONH2)}),33
2,CC(C)C[C@H](NC(=O)[C@@H](CCC(=O)O)NC(=O)[C@H]1CCCN1C(=O)Cc1ccc(CNC(=O)[C@H](CC(C)C)NC(=O)[C@@H](CCCCN)NC(=O)[C@@H](Cc2ccccc2)NC(=O)Cc2ccc(CNC(=O)[C@@H](NC(=O)[C@@H](CCC(=O)O)NC(=O)[C@@H](Cc3ccccc3)NC(=O)Cc3ccc(CNC(=O)[C@H](CC(C)C)NC(=O)[C@@H](CCCNC(=N)N)NC(=O)[C@@H](CC(C)C)NC(=O)Cc4ccc(CNC(=O)[C@H](Cc5ccccc5)NC(=O)[C@@H](CC(C)C)NC(=O)[C@H](NC(=O)c5ccc6c(c5)C(=O)OC65c6ccc(O)cc6Oc6cc(O)ccc65)[C@H](C)O)cc4)cc3)C(C)C)cc2)cc1)C(=O)NCc1ccc(CC(=O)N2CCC[C@@H]2C(=O)N[C@H](CCC(=O)O)C(=O)N[C@@H](Cc2ccccc2)C(=O)NCc2ccc(CC(=O)N[C@H](Cc3c[nH]cn3)C(=O)N[C@H](CCC(=O)O)C(=O)N[C@@H](CC(C)C)C(=O)NCc3ccc(CC(=O)N4CCC[C@@H]4C(=O)N[C@H](CCCNC(=N)N)C(=O)N[C@@H](C)C(=O)NCc4ccc(CC(=O)N[C@H](Cc5c[nH]cn5)C(=O)N[C@H](Cc5ccc(O)cc5)C(=O)N[C@H](C(=O)NCc5ccc(CC(N)=O)cc5)C(C)C)cc4)cc3)cc2)cc1 [TNF-39-4] (5FAM-[dT][dL]F[X1][dL][dR]L[X1][dF][dE]V[X1][dF][dK]L[X1][dP][dE]L[X1][dP][dE]F[X1][dH][dE]L[X1][dP][dR]A[X1][dH][dY]V-{NHCH2C6H4(4-CH2CONH2)}),28
3,CC(C)C[C@H](NC(=O)[C@@H](CCCNC(=N)N)NC(=O)[C@@H](CC(C)C)NC(=O)Cc1ccc(CNC(=O)[C@H](CC(C)C)NC(=O)[C@H](NC(=O)[C@@H](CCCCN)NC(=O)c2ccc3c(c2)C(=O)OC32c3ccc(O)cc3Oc3cc(O)ccc32)C(C)C)cc1)C(=O)NCc1ccc(CC(=O)N[C@H](Cc2ccccc2)C(=O)N[C@H](CCC(=O)O)C(=O)N[C@H](C(=O)NCc2ccc(CC(=O)N[C@H](Cc3ccccc3)C(=O)N[C@H](CCCNC(=N)N)C(=O)N[C@@H](C)C(=O)NCc3ccc(CC(=O)N[C@H](Cc4ccc(O)cc4)C(=O)N[C@H](CCCCN)C(=O)N[C@@H](C)C(=O)NCc4ccc(CC(=O)N[C@H](CCC(=O)O)C(=O)N[C@H](CO)C(=O)N[C@H](C(=O)NCc5ccc(CC(=O)N6CCC[C@@H]6C(=O)N[C@@H](C(=O)NCC(=O)NCc6ccc(CC(=O)N7CCC[C@@H]7C(=O)N[C@H](CCCNC(=N)N)C(=O)N[C@@H](C)C(=O)NCc7ccc(CC(=O)N[C@H](Cc8ccccc8)C(=O)N[C@H](CCCCN)C(=O)NCC(=O)NCc8ccc(CC(N)=O)cc8)cc7)cc6)C(C)C)cc5)C(C)C)cc4)cc3)cc2)C(C)C)cc1 [TNF-39-5] (5FAM-[dK][dV]L[X1][dL][dR]L[X1][dF][dE]V[X1][dF][dR]A[X1][dY][dK]A[X1][dE][dS]V[X1][dP][dV]G[X1][dP][dR]A[X1][dF][dK]G-{NHCH2C6H4(4-CH2CONH2)}),23
4,CC(C)C[C@H](NC(=O)[C@@H](CCCCN)NC(=O)[C@@H](Cc1ccccc1)NC(=O)Cc1ccc(CNC(=O)[C@H](CC(C)C)NC(=O)[C@H](NC(=O)[C@@H](CCCNC(=N)N)NC(=O)Cc2ccc(CNC(=O)[C@H](CC(C)C)NC(=O)[C@@H](CCCNC(=N)N)NC(=O)[C@@H](CC(C)C)NC(=O)Cc3ccc(CNC(=O)[C@H](CC(C)C)NC(=O)[C@H](NC(=O)[C@@H](CCCCN)NC(=O)c4ccc5c(c4)C(=O)OC54c5ccc(O)cc5Oc5cc(O)ccc54)C(C)C)cc3)cc2)C(C)C)cc1)C(=O)NCc1ccc(CC(=O)N[C@H](C)C(=O)N[C@H](CCCCN)C(=O)N[C@@H](Cc2ccccc2)C(=O)NCc2ccc(CC(=O)N[C@H](Cc3ccccc3)C(=O)N[C@@H](C(=O)N[C@@H](C)C(=O)NCc3ccc(CC(=O)N4CCC[C@@H]4C(=O)NCC(=O)N[C@H](C(=O)NCc4ccc(CC(=O)N[C@H](CCCCN)C(=O)N[C@H](Cc5ccccc5)C(=O)N[C@@H](Cc5ccccc5)C(=O)NCc5ccc(CC(=O)N[C@H](C)C(=O)N[C@@H](C(=O)N[C@@H](CC(C)C)C(=O)NCc6ccc(CC(N)=O)cc6)C(C)C)cc5)cc4)C(C)C)cc3)[C@H](C)O)cc2)cc1 [TNF-39-7] (5FAM-[dK][dV]L[X1][dL][dR]L[X1][dR][dV]L[X1][dF][dK]L[X1][dA][dK]F[X1][dF][dT]A[X1][dP]GV[X1][dK][dF]F[X1][dA][dV]L-{NHCH2C6H4(4-CH2CONH2)}),53
5,CC(C)C[C@H](NC(=O)[C@@H](CCCNC(=N)N)NC(=O)CNC(=O)Cc1ccc(CNC(=O)[C@H](CC(C)C)NC(=O)[C@@H](CC(C)C)NC(=O)[C@@H](Cc2ccc(O)cc2)NC(=O)c2ccc3c(c2)C(=O)OC32c3ccc(O)cc3Oc3cc(O)ccc32)cc1)C(=O)NCc1ccc(CC(=O)N[C@H](Cc2ccccc2)C(=O)N[C@H](CCC(=O)O)C(=O)N[C@H](C(=O)NCc2ccc(CC(=O)N[C@H](Cc3c[nH]c4ccccc34)C(=O)N[C@H](CCCNC(=N)N)C(=O)N[C@@H](CC(C)C)C(=O)NCc3ccc(CC(=O)N[C@H](Cc4c[nH]c5ccccc45)C(=O)N[C@H](CCCNC(=N)N)C(=O)N[C@H](C(=O)NCc4ccc(CC(=O)N[C@H](CCCNC(=N)N)C(=O)N[C@H](Cc5ccc(O)cc5)C(=O)N[C@@H](CC(C)C)C(=O)NCc5ccc(CC(=O)N6CCC[C@@H]6C(=O)NCC(=O)N[C@H](C(=O)NCc6ccc(CC(=O)N[C@H](Cc7c[nH]cn7)C(=O)N[C@H](CO)C(=O)N[C@@H](CC(C)C)C(=O)NCc7ccc(CC(=O)N[C@H](Cc8ccccc8)C(=O)N[C@H](CCCCN)C(=O)NCC(=O)NCc8ccc(CC(N)=O)cc8)cc7)cc6)C(C)C)cc5)cc4)C(C)C)cc3)cc2)C(C)C)cc1 [TNF-39-2] (5FAM-[dY][dL]L[X1]G[dR]L[X1][dF][dE]V[X1][dW][dR]L[X1][dW][dR]V[X1][dR][dY]L[X1][dP]GV[X1][dH][dS]L[X1][dF][dK]G-{NHCH2C6H4(4-CH2CONH2)}),200
6,CC(C)C[C@H](NC(=O)[C@@H](CCC(=O)O)NC(=O)[C@H]1CCCN1C(=O)Cc1ccc(CNC(=O)[C@H](CC(C)C)NC(=O)[C@@H](CCCCN)NC(=O)[C@@H](Cc2ccccc2)NC(=O)Cc2ccc(CNC(=O)[C@@H](NC(=O)[C@@H](CCC(=O)O)NC(=O)[C@@H](Cc3ccccc3)NC(=O)Cc3ccc(CNC(=O)[C@H](CC(C)C)NC(=O)[C@@H](CCCNC(=N)N)NC(=O)[C@@H](CC(C)C)NC(=O)Cc4ccc(CNC(=O)[C@H](CC(C)C)NC(=O)[C@H](NC(=O)[C@@H](CCCCN)NC(=O)c5ccc6c(c5)C(=O)OC65c6ccc(O)cc6Oc6cc(O)ccc65)C(C)C)cc4)cc3)C(C)C)cc2)cc1)C(=O)NCc1ccc(CC(=O)N[C@H](Cc2ccccc2)C(=O)N[C@@H](C(=O)N[C@@H](C)C(=O)NCc2ccc(CC(=O)N[C@H](Cc3c[nH]cn3)C(=O)N[C@H](CCC(=O)O)C(=O)N[C@@H](CC(C)C)C(=O)NCc3ccc(CC(=O)N[C@H](CCC(=O)O)C(=O)N[C@H](Cc4ccc(O)cc4)C(=O)N[C@@H](Cc4ccccc4)C(=O)NCc4ccc(CC(=O)N[C@@H](C(=O)N[C@H](CO)C(=O)N[C@H](C(=O)NCc5ccc(CC(N)=O)cc5)C(C)C)[C@H](C)O)cc4)cc3)cc2)[C@H](C)O)cc1 [TNF-31-16] (5FAM-[dK][dV]L[X1][dL][dR]L[X1][dF][dE]V[X1][dF][dK]L[X1][dP][dE]L[X1][dF][dT]A[X1][dH][dE]L[X1][dE][dY]F[X1][dT][dS]V-{NHCH2C6H4(4-CH2CONH2)}),180
